Experimental data reported in patent publication US20250230193A1, “CYCLIC COMPOUND HAVING SELECTIVE KRAS INHIBITORY EFFECT ON HRAS AND NRAS” (CHUGAI SEIYAKU KABUSHIKI KAISHA, priority 2022, published 2025).
Where a SMILES comes first, the peptide text is derived from it. Bridges are numbered along the chain shown (N, C = ends). [ ]: non-standard residue; d: D form. The star is where a group is joined. hPhe(3-Cl-4-CF3) = N[C@@H](CCc1ccc(C(F)(F)F)c(Cl)c1)C(=O)O; NPrPhe(4-CF3) = CCCN[C@@H](Cc1ccc(C(F)(F)F)cc1)C(=O)O; Pro(4-spirocPr) = O=C(O)[C@@H]1CC2(CC2)CN1; Morpholine(3S-CO) = O=C(O)[C@@H]1COCCN1; Pip(4,4-F2) = O=C(O)[C@@H]1CC(F)(F)CCN1; NMeGly(cPent) = CN[C@H](C(=O)O)C1CCCC1; Gly(cPent) = N[C@H](C(=O)O)C1CCCC1; Hyp = O=C(O)[C@@H]1C[C@@H](O)CN1; NMeD = CN[C@@H](CC(=O)O)C(=O)O; NMeL = CN[C@@H](CC(C)C)C(=O)O; Pip = O=C(O)[C@@H]1CCCCN1; Morpholide = C1CN(*)CCO1; Ac5c = NC1(C(=O)O)CCCC1; Aze = O=C(O)[C@@H]1CCN1; NPrGly = CCCNCC(=O)O; Sar = CNCC(=O)O

Columns and labels:
[1] = target: GDP-bound NRAS wild-type protein (Homo sapiens, UniProt P01111); assay: Binding to NRAS by surface plasmon resonance (SPR), Single Cycle Kinetics; settings: KD ratio NRAS/KRAS, SPR
GDP-bound NRAS wild-type protein, sequence (P01111 whole entry): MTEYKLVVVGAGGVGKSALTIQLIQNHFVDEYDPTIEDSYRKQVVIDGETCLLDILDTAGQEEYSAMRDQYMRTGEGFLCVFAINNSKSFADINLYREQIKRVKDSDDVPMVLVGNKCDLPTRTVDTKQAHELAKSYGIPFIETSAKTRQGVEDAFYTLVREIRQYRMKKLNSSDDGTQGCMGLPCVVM

[2] = target: GDP-bound HRAS wild-type protein (Homo sapiens, UniProt P01112); assay: Binding to HRAS by surface plasmon resonance (SPR), Single Cycle Kinetics; settings: KD ratio HRAS/KRAS, SPR
GDP-bound HRAS wild-type protein, sequence (P01112 whole entry): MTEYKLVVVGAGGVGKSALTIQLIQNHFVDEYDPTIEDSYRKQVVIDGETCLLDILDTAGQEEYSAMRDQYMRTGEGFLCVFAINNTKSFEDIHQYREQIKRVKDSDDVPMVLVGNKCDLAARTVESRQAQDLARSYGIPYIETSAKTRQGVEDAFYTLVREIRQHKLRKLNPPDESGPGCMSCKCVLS

Row | Structure (SMILES) | NRAS/KRAS (ratio of KD for GDP-bound NRAS wild-type to KD for KRAS) [1] | HRAS/KRAS (ratio of KD for GDP-bound HRAS wild-type to KD for KRAS) [2]
1 | CCCN1C(=O)CN(C)C(=O)[C@@H]2CCN2C(=O)[C@H](C2CCCC2)NC(=O)[C@H](CC(C)C)N(C)C(=O)C[C@@H](C(=O)N2CCOCC2)N(C)C(=O)[C@H](C2CCCC2)N(C)C(=O)C2(CCCC2)NC(=O)[C@@H]2CCCN2C(=O)[C@H](CCc2ccc(C(F)(F)F)c(Cl)c2)NC(=O)CN(C)C(=O)[C@@H]1Cc1ccc(C(F)(F)F)cc1 [PP0306] ([NMeL][Gly(cPent)][Aze][Sar][NPrPhe(4-CF3)][Sar][hPhe(3-Cl-4-CF3)]P[Ac5c][NMeGly(cPent)][NMeD]-Morpholide; lactam N-11) | B (a compound having 3 or more and less than 10 is denoted as B) | B (a compound having 3 or more and less than 10 is denoted as B)
2 | CCCN1C(=O)CN(C)C(=O)[C@@H]2CCN2C(=O)[C@H]([C@@H](C)CC)NC(=O)[C@H](CC(C)C)N(C)C(=O)C[C@@H](C(=O)N2CCOCC2)N(C)C(=O)[C@H](C2CCCC2)N(C)C(=O)C2(CCCC2)NC(=O)[C@@H]2CCN2C(=O)[C@H](CCc2ccc(C(F)(F)F)c(Cl)c2)NC(=O)CN(C)C(=O)[C@@H]1Cc1ccc(C(F)(F)F)cc1 [PP0307] ([NMeL]I[Aze][Sar][NPrPhe(4-CF3)][Sar][hPhe(3-Cl-4-CF3)][Aze][Ac5c][NMeGly(cPent)][NMeD]-Morpholide; lactam N-11) | B (a compound having 3 or more and less than 10 is denoted as B) | B (a compound having 3 or more and less than 10 is denoted as B)
3 | CCCN1C(=O)CN(C)C(=O)[C@@H]2CCN2C(=O)[C@H]([C@@H](C)CC)NC(=O)[C@H](CC(C)C)N(C)C(=O)C[C@@H](C(=O)N2CCOCC2)N(C)C(=O)[C@H](C2CCCC2)N(C)C(=O)C2(CCCC2)NC(=O)[C@@H]2CC3(CC3)CN2C(=O)[C@H](CCc2ccc(C(F)(F)F)c(Cl)c2)NC(=O)CN(C)C(=O)[C@@H]1Cc1ccc(C(F)(F)F)cc1 [PP0308] ([NMeL]I[Aze][Sar][NPrPhe(4-CF3)][Sar][hPhe(3-Cl-4-CF3)][Pro(4-spirocPr)][Ac5c][NMeGly(cPent)][NMeD]-Morpholide; lactam N-11) | B (a compound having 3 or more and less than 10 is denoted as B) | B (a compound having 3 or more and less than 10 is denoted as B)
4 | CCCN1C(=O)CN(C)C(=O)[C@@H]2CCN2C(=O)[C@H]([C@@H](C)CC)NC(=O)[C@H](CC(C)C)N(C)C(=O)C[C@@H](C(=O)N2CCOCC2)N(C)C(=O)[C@H](C2CCCC2)N(C)C(=O)C2(CCCC2)NC(=O)[C@@H]2C[C@@H](OC)CN2C(=O)[C@H](CCc2ccc(C(F)(F)F)c(Cl)c2)NC(=O)CN(C)C(=O)[C@@H]1Cc1ccc(C(F)(F)F)cc1 [PP0309] ([NMeL]I[Aze][Sar][NPrPhe(4-CF3)][Sar][hPhe(3-Cl-4-CF3)][Hyp](Me)[Ac5c][NMeGly(cPent)][NMeD]-Morpholide; lactam N-11) | B (a compound having 3 or more and less than 10 is denoted as B) | B (a compound having 3 or more and less than 10 is denoted as B)
5 | CCCN1C(=O)CN(C)C(=O)[C@@H]2CCN2C(=O)[C@H]([C@@H](C)CC)NC(=O)[C@H](CC(C)C)N(C)C(=O)C[C@@H](C(=O)N2CCOCC2)N(C)C(=O)[C@H](C2CCCC2)N(C)C(=O)C2(CCCC2)NC(=O)[C@@H]2C[C@@H](OCC)CN2C(=O)[C@H](CCc2ccc(C(F)(F)F)c(Cl)c2)NC(=O)CN(C)C(=O)[C@@H]1Cc1ccc(C(F)(F)F)cc1 [PP0310] ([NMeL]I[Aze][Sar][NPrPhe(4-CF3)][Sar][hPhe(3-Cl-4-CF3)][Hyp](Et)[Ac5c][NMeGly(cPent)][NMeD]-Morpholide; lactam N-11) | B (a compound having 3 or more and less than 10 is denoted as B) | C (A compound having a KD ratio of 0.1 or more and less than 3 is denoted as C)
6 | CCCN1C(=O)CN(C)C(=O)[C@@H]2CCN2C(=O)[C@H]([C@@H](C)CC)NC(=O)[C@H](CC(C)C)N(C)C(=O)C[C@@H](C(=O)N2CCOCC2)N(C)C(=O)[C@H](C2CCCC2)N(C)C(=O)C2(CCCC2)NC(=O)[C@@H]2CCCCN2C(=O)[C@H](CCc2ccc(C(F)(F)F)c(Cl)c2)NC(=O)CN(C)C(=O)[C@@H]1Cc1ccc(C(F)(F)F)cc1 [PP0311] ([NMeL]I[Aze][Sar][NPrPhe(4-CF3)][Sar][hPhe(3-Cl-4-CF3)][Pip][Ac5c][NMeGly(cPent)][NMeD]-Morpholide; lactam N-11) | B (a compound having 3 or more and less than 10 is denoted as B) | B (a compound having 3 or more and less than 10 is denoted as B)
7 | CCCN1C(=O)CN(C)C(=O)[C@@H]2CCN2C(=O)[C@H]([C@@H](C)CC)NC(=O)[C@H](CC(C)C)N(C)C(=O)C[C@@H](C(=O)N2CCOCC2)N(C)C(=O)[C@H](C2CCCC2)N(C)C(=O)C2(CCCC2)NC(=O)[C@@H]2CC(F)(F)CCN2C(=O)[C@H](CCc2ccc(C(F)(F)F)c(Cl)c2)NC(=O)CN(C)C(=O)[C@@H]1Cc1ccc(C(F)(F)F)cc1 [PP0312] ([NMeL]I[Aze][Sar][NPrPhe(4-CF3)][Sar][hPhe(3-Cl-4-CF3)][Pip(4,4-F2)][Ac5c][NMeGly(cPent)][NMeD]-Morpholide; lactam N-11) | B (a compound having 3 or more and less than 10 is denoted as B) | B (a compound having 3 or more and less than 10 is denoted as B)
8 | CCCN1C(=O)CN(C)C(=O)[C@@H]2CCN2C(=O)[C@H]([C@@H](C)CC)NC(=O)[C@H](CC(C)C)N(C)C(=O)C[C@@H](C(=O)N2CCOCC2)N(C)C(=O)[C@H](C2CCCC2)N(C)C(=O)C2(CCCC2)NC(=O)[C@@H]2COCCN2C(=O)[C@H](CCc2ccc(C(F)(F)F)c(Cl)c2)NC(=O)CN(C)C(=O)[C@@H]1Cc1ccc(C(F)(F)F)cc1 [PP0313] ([NMeL]I[Aze][Sar][NPrPhe(4-CF3)][Sar][hPhe(3-Cl-4-CF3)][Morpholine(3S-CO)][Ac5c][NMeGly(cPent)][NMeD]-Morpholide; lactam N-11) | B (a compound having 3 or more and less than 10 is denoted as B) | C (A compound having a KD ratio of 0.1 or more and less than 3 is denoted as C)
9 | CCCN1C(=O)CN(C)C(=O)[C@@H]2CCN2C(=O)[C@H]([C@@H](C)CC)NC(=O)[C@H](CC(C)C)N(C)C(=O)C[C@@H](C(=O)N2CCOCC2)N(C)C(=O)[C@H](C2CCCC2)N(C)C(=O)C2(CCCC2)NC(=O)CN(C)C(=O)[C@H](CCc2ccc(C(F)(F)F)c(Cl)c2)NC(=O)CN(C)C(=O)[C@@H]1Cc1ccc(C(F)(F)F)cc1 [PP0314] ([NMeL]I[Aze][Sar][NPrPhe(4-CF3)][Sar][hPhe(3-Cl-4-CF3)][Sar][Ac5c][NMeGly(cPent)][NMeD]-Morpholide; lactam N-11) | B (a compound having 3 or more and less than 10 is denoted as B) | C (A compound having a KD ratio of 0.1 or more and less than 3 is denoted as C)
10 | CCCN1CC(=O)NC2(CCCC2)C(=O)N(C)[C@@H](C2CCCC2)C(=O)N(C)[C@H](C(=O)N2CCOCC2)CC(=O)N(C)[C@@H](CC(C)C)C(=O)N[C@@H]([C@@H](C)CC)C(=O)N2CC[C@H]2C(=O)N(C)CC(=O)N(CCC)[C@@H](Cc2ccc(C(F)(F)F)cc2)C(=O)N(C)CC(=O)N[C@@H](CCc2ccc(C(F)(F)F)c(Cl)c2)C1=O [PP0315] ([NMeL]I[Aze][Sar][NPrPhe(4-CF3)][Sar][hPhe(3-Cl-4-CF3)][NPrGly][Ac5c][NMeGly(cPent)][NMeD]-Morpholide; lactam N-11) | B (a compound having 3 or more and less than 10 is denoted as B) | B (a compound having 3 or more and less than 10 is denoted as B)
11 | CC[C@H](C)[C@@H]1NC(=O)[C@H](CC(C)C)N(C)C(=O)C[C@@H](C(=O)N2CCOCC2)N(C)C(=O)[C@H](C2CCCC2)N(C)C(=O)C2(CCCC2)NC(=O)[C@@H]2CCCN2C(=O)[C@H](CCc2ccc(C(F)(F)F)c(Cl)c2)NC(=O)CN(C)C(=O)[C@H](Cc2ccc(C)cc2)N2CCCC[C@@H](C2=O)N(C)C(=O)CN(C)C1=O [PP0316] | C (A compound having a KD ratio of 0.1 or more and less than 3 is denoted as C) | B (a compound having 3 or more and less than 10 is denoted as B)
12 | CC[C@H](C)[C@@H]1NC(=O)[C@H](CC(C)C)N(C)C(=O)C[C@@H](C(=O)N2CCOCC2)N(C)C(=O)[C@H](C2CCCC2)N(C)C(=O)C2(CCCC2)NC(=O)[C@@H]2CCCN2C(=O)[C@H](CCc2ccc(C(F)(F)F)c(Cl)c2)NC(=O)CN(C)C(=O)[C@H](Cc2ccc(C)cc2)N2CCCCC[C@@H](C2=O)N(C)C(=O)CN(C)C1=O [PP0317] | B (a compound having 3 or more and less than 10 is denoted as B) | B (a compound having 3 or more and less than 10 is denoted as B)
13 | CC[C@H](C)[C@@H]1NC(=O)[C@H](CC(C)C)N(C)C(=O)C[C@@H](C(=O)N2CCOCC2)N(C)C(=O)[C@H](C2CCCC2)N(C)C(=O)C2(CCCC2)NC(=O)[C@@H]2CCCN2C(=O)[C@H](CCc2ccc(C(F)(F)F)c(Cl)c2)NC(=O)CN(C)C(=O)[C@H](Cc2ccc(C(F)(F)F)cc2)N2CCCC[C@@H](C2=O)N(C)C(=O)CN(C)C1=O [PP0318] | B (a compound having 3 or more and less than 10 is denoted as B) | B (a compound having 3 or more and less than 10 is denoted as B)
